Literature values as cited in patent US9125411B2, “UV absorbers for reducing the E/Z isomerization of pesticides” (BASF SE, priority 2010, dated 2015).

Which “pesticidal activity of the E isomer relative to the Z isomer” value (E isomer higher than Z isomer) does the source give for metaflumizone here?
Its value is “up to 10 fold”.

And the “change of activity by irradiation by light” value (Takagi et al., Veterinary Parasitology, 2007)?
Its value is “loses activity”.
